Test results: US20260297081A1, “COMPOUNDS AND METHODS OF TREATING CANCERS” (Cullgen Inc., priority 2023, published 2026)

Columns and labels:
MCF7 cells = experiment: Anti-proliferation (viability) of MCF7 cells (Table 7, FIG. 2B); type: cell-based; settings: Homo sapiens, MCF7, MCF7 cells, 3-6 days, 10-point serial dilution; read-out: GI IC50 in MCF-7
CDK4 = CDK4 (Homo sapiens, UniProt P11802+Q16531); experiment: HiBiT detection of HiBiT-tagged CDK4 protein level in MCF7 cells, 16 hours (Table 8); type: cell-based; design: expressed in transfected cells; host or cells: MCF7; settings: MCF7 cells stably expressing HiBiT tagged target proteins; for activity at 0.01 µM: 10 nM, read-out: % CDK4 Relative Level (10 nM); for activity at 0.1 µM: 100 nM, read-out: % CDK4 Relative Level (100 nM)
Procedure: HiBiT detection system quantitatively measures total amounts of HiBiT-tagged proteins using a luminescent based method. MCF7 cells stably expressing HiBiT tagged target proteins were treated with heterobifunctional compounds at indicated concentrations for 16 hours, then lysed with Nano-Glo HiBiT Lytic detection reagents.

CDK4, sequence (P11802 whole entry): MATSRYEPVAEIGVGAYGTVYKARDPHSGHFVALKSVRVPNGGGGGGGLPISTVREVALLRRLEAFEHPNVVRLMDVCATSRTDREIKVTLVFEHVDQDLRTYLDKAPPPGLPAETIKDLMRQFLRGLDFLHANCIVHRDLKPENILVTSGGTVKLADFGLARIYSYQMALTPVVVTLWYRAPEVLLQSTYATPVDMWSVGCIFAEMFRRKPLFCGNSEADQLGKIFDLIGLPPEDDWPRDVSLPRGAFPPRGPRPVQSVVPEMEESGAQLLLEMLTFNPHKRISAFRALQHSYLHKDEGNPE
CDK4, sequence (P24385 whole entry partner): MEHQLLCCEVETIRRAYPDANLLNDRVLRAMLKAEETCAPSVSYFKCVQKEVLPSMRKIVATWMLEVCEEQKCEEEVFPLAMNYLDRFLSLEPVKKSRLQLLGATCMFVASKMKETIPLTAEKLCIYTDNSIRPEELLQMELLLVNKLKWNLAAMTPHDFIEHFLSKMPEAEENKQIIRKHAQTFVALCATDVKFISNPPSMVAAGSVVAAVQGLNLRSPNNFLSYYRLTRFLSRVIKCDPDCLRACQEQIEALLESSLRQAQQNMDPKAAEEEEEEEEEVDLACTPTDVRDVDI
CDK4, sequence (Q16531 2-1140 limits assumed): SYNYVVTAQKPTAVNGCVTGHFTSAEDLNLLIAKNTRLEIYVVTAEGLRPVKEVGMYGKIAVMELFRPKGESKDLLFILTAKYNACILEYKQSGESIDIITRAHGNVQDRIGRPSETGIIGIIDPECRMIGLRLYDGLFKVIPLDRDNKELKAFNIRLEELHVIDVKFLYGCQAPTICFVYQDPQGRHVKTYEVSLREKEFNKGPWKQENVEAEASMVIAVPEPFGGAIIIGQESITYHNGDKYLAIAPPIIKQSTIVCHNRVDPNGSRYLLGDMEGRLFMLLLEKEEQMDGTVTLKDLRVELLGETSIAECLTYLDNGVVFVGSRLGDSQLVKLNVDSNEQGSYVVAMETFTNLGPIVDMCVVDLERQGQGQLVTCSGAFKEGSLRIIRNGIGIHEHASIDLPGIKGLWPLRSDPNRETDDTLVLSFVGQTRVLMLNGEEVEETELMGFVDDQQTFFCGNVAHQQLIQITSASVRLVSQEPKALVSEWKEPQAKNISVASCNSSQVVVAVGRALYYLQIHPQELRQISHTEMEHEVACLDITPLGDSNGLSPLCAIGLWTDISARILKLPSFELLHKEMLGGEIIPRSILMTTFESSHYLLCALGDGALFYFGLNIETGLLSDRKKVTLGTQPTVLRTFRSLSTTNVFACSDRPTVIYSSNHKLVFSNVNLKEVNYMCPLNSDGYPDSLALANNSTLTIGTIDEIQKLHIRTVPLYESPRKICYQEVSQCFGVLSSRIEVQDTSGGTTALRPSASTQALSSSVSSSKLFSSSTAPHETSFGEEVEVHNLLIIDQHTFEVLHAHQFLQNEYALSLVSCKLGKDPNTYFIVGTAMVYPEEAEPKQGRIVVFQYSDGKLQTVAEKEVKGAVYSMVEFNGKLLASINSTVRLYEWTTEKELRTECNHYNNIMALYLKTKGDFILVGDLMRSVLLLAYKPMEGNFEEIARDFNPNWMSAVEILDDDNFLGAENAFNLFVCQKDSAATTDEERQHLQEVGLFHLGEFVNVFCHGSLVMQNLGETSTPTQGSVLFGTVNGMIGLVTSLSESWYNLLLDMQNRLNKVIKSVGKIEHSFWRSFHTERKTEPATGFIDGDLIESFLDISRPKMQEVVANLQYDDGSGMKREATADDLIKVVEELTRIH

| SMILES | IC50 (MCF7 cells) [nM] | activity at 0.01 µM (CDK4) [%] | activity at 0.1 µM (CDK4) [%] |
| --- | --- | --- | --- |
| CC(C)Nc1ccc(C(=O)Nc2ccc(N(C)C)nn2)c(NC2CC3(C2)CN(C(=O)CN2CCN(Cc4ccc(Nc5ncc6cc7n(c6n5)C5(CCCCC5)CNC7=O)nc4)CC2)C3)n1 [CPD-557, N-(6-(dimethylamino)pyridazin-3-yl)-6-(isopropylamino)-2-((2-(2-(4-((6-((6′-oxo-7′,8′-dihydro-6′H-spiro[cyclohexane-1,9′-pyrazino[1′,2′:1,5]pyrrolo[2,3-d]pyrimidin]-2′-yl)amino)pyridin-3-yl)methyl)piperazin-1-yl)acetyl)-2-azaspiro[3.3]heptan-6-yl)amino)nicotinamide] | > 100 | > 85 | > 85 |
| CC(C)Nc1ccc(C(=O)Nc2ccc(N(C)C)nn2)c(NC2CC3(CC(NC(=O)CN4CCN(Cc5ccc(Nc6ncc7cc8n(c7n6)C6(CCCCC6)CNC8=O)nc5)CC4)C3)C2)n1 (stereo not drawn) [CPD-558, N-(6-(dimethylamino)pyridazin-3-yl)-6-(isopropylamino)-2-((6-(2-(4-((6-((6′-oxo-7′,8′-dihydro-6′H-spiro[cyclohexane-1,9′-pyrazino[1′,2′:1,5]pyrrolo[2,3-d]pyrimidin]-2′-yl)amino)pyridin-3-yl)methyl)piperazin-1-yl)acetamido)spiro[3.3]heptan-2-yl)amino)nicotinamide] | > 100 | > 85 | > 85 |
| CC(=O)c1c(C)c2cnc(Nc3ccc(N4CCN(C5CCN(C(=O)[C@H]6CC[C@H](Nc7nc(C)ccc7C(=O)Nc7ccc(N(C)C)nn7)CC6)C5)CC4)cn3)nc2n(C2CCCC2)c1=O (stereo partly drawn) [CPD-576, 2-((trans-4-(3-(4-(6-((6-acetyl-8-cyclopentyl-5-methyl-7-oxo-7,8-dihydropyrido[2,3-d]pyrimidin-2-yl)amino)pyridin-3-yl)piperazin-1-yl)pyrrolidine-1-carbonyl)cyclohexyl)amino)-N-(6-(dimethylamino)pyridazin-3-yl)-6-methylnicotinamide] | > 100 | 55 to 85 | 55 to 85 |
| CC(=O)c1c(C)c2cnc(Nc3ccc(CN4CCN(CC(=O)N5CCC6(CCC(Nc7nc(C8CC8)ccc7C(=O)Nc7ccc(N(C)C)nn7)C6)C5)CC4)cn3)nc2n(C2CCCC2)c1=O (stereo not drawn) [CPD-581, 2-((2-(2-(4-((6-((6-acetyl-8-cyclopentyl-5-methyl-7-oxo-7,8-dihydropyrido[2,3-d]pyrimidin-2-yl)amino)pyridin-3-yl)methyl)piperazin-1-yl)acetyl)-2-azaspiro[4.4]nonan-7-yl)amino)-6-cyclopropyl-N-(6-(dimethylamino)pyridazin-3-yl)nicotinamide] | < 50 | 55 to 85 | 55 to 85 |
| CCc1ccc(C(=O)Nc2ccc(N(C)C)nn2)c(NC2CCC3(CCN(C(=O)CN4CCN(Cc5ccc(Nc6ncc7c(C)c(C(C)=O)c(=O)n(C8CCCC8)c7n6)nc5)CC4)C3)C2)n1 (stereo not drawn) [CPD-582, 2-((2-(2-(4-((6-((6-acetyl-8-cyclopentyl-5-methyl-7-oxo-7,8-dihydropyrido[2,3-d]pyrimidin-2-yl)amino)pyridin-3-yl)methyl)piperazin-1-yl)acetyl)-2-azaspiro[4.4]nonan-7-yl)amino)-N-(6-(dimethylamino)pyridazin-3-yl)-6-ethylnicotinamide] | < 50 | 55 to 85 | 55 to 85 |
| CC(=O)c1c(C)c2cnc(Nc3ccc(CN4CCN(CC(=O)N5CCC6(CCC(Nc7nc(C(C)C)ccc7C(=O)Nc7ccc(N(C)C)nn7)C6)C5)CC4)cn3)nc2n(C2CCCC2)c1=O (stereo not drawn) [CPD-583, 2-((2-(2-(4-((6-((6-acetyl-8-cyclopentyl-5-methyl-7-oxo-7,8-dihydropyrido[2,3-d]pyrimidin-2-yl)amino)pyridin-3-yl)methyl)piperazin-1-yl)acetyl)-2-azaspiro[4.4]nonan-7-yl)amino)-N-(6-(dimethylamino)pyridazin-3-yl)-6-isopropylnicotinamide] | < 50 | 55 to 85 | 55 to 85 |

The remaining lines, values ahead:

| IC50 (MCF7 cells) [nM] | activity at 0.01 µM (CDK4) [%] | activity at 0.1 µM (CDK4) [%] | SMILES |
| --- | --- | --- | --- |
| < 50 | 55 to 85 | 55 to 85 | [2H]C([2H])([2H])Nc1ccc(C(=O)Nc2cc(C)n(C)n2)c(NC2CC3(C2)CN(C(=O)CN2CCC4(CCN(c5ccc(Nc6ncc7c(C)c(C(C)=O)c(=O)n(C8CCCC8)c7n6)nc5)C4)C2)C3)n1 (stereo not drawn) [CPD-447, 2-((2-(2-(7-(6-((6-acetyl-8-cyclopentyl-5-methyl-7-oxo-7,8-dihydropyrido[2,3-d]pyrimidin-2-yl)amino)pyridin-3-yl)-2,7-diazaspiro[4.4]nonan-2-yl)acetyl)-2-azaspiro[3.3]heptan-6-yl)amino)-N-(1,5-dimethyl-1H-pyrazol-3-yl)-6-((methyl-d3)amino)nicotinamide] |
| < 50 | 55 to 85 | 55 to 85 | CC(=O)c1c(C)c2cnc(Nc3ccc(N4CCC5(CCN(CC(=O)N6CC7(CC(Nc8nc(NC(C)C)ccc8C(=O)Nc8ccc(N(C)C)nn8)C7)C6)C5)C4)cn3)nc2n(C2CCCC2)c1=O (stereo not drawn) [CPD-448, 2-((2-(2-(7-(6-((6-acetyl-8-cyclopentyl-5-methyl-7-oxo-7,8-dihydropyrido[2,3-d]pyrimidin-2-yl)amino)pyridin-3-yl)-2,7-diazaspiro[4.4]nonan-2-yl)acetyl)-2-azaspiro[3.3]heptan-6-yl)amino)-N-(6-(dimethylamino)pyridazin-3-yl)-6-(isopropylamino)nicotinamide] |
| < 50 | 55 to 85 | 55 to 85 | CC(=O)c1c(C)c2cnc(Nc3ccc(N4CCN(C5CCN(C(=O)[C@H]6CC[C@H](Nc7nc(C8CC8)ccc7C(=O)Nc7ccc(N(C)C)nn7)CC6)C5)CC4)cn3)nc2n(C2CCCC2)c1=O (stereo partly drawn) [CPD-573, 2-((trans-4-(3-(4-(6-((6-acetyl-8-cyclopentyl-5-methyl-7-oxo-7,8-dihydropyrido[2,3-d]pyrimidin-2-yl)amino)pyridin-3-yl)piperazin-1-yl)pyrrolidine-1-carbonyl)cyclohexyl)amino)-6-cyclopropyl-N-(6-(dimethylamino)pyridazin-3-yl)nicotinamide] |
| < 50 | > 85 | 55 to 85 | CC(=O)c1c(C)c2cnc(Nc3ccc(N4CCN(C5CCN(C(=O)C6(O)CCC(Nc7nc(NC(C)C)ccc7C(=O)Nc7ccc(N(C)C)nn7)CC6)C5)CC4)cn3)nc2n(C2CCCC2)c1=O (stereo not drawn) [CPD-574, 2-((cis-4-(3-(4-(6-((6-acetyl-8-cyclopentyl-5-methyl-7-oxo-7,8-dihydropyrido[2,3-d]pyrimidin-2-yl)amino)pyridin-3-yl)piperazin-1-yl)pyrrolidine-1-carbonyl)-4-hydroxycyclohexyl)amino)-N-(6-(dimethylamino)pyridazin-3-yl)-6-(isopropylamino)nicotinamide] |
| < 50 | > 85 | 55 to 85 | CCc1ccc(C(=O)Nc2ccc(N(C)C)nn2)c(NC23CC(C(=O)N4CCC(N5CCN(c6ccc(Nc7ncc8c(C)c(C(C)=O)c(=O)n(C9CCCC9)c8n7)nc6)CC5)C4)(C2)C3)n1 (stereo not drawn) [CPD-577, 2-((3-(3-(4-(6-((6-acetyl-8-cyclopentyl-5-methyl-7-oxo-7,8-dihydropyrido[2,3-d]pyrimidin-2-yl)amino)pyridin-3-yl)piperazin-1-yl)pyrrolidine-1-carbonyl)bicyclo[1.1.1]pentan-1-yl)amino)-N-(6-(dimethylamino)pyridazin-3-yl)-6-ethylnicotinamide] |
| < 50 | 55 to 85 | 55 to 85 | CCc1ccc(C(=O)Nc2ccc(N(C)C)nn2)c(NC2CC3(CC(NC(=O)CN4CCN(Cc5ccc(Nc6ncc7c(C)c(C(C)=O)c(=O)n(C8CCCC8)c7n6)nc5)CC4)C3)C2)n1 (stereo not drawn) [CPD-578, 2-((6-(2-(4-((6-((6-acetyl-8-cyclopentyl-5-methyl-7-oxo-7,8-dihydropyrido[2,3-d]pyrimidin-2-yl)amino)pyridin-3-yl)methyl)piperazin-1-yl)acetamido)spiro[3.3]heptan-2-yl)amino)-N-(6-(dimethylamino)pyridazin-3-yl)-6-ethylnicotinamide] |
| < 50 | 55 to 85 | 55 to 85 | CC(=O)c1c(C)c2cnc(Nc3ccc(CN4CCN(CC(=O)NC5CC6(C5)CC(Nc5nc(C(C)C)ccc5C(=O)Nc5ccc(N(C)C)nn5)C6)CC4)cn3)nc2n(C2CCCC2)c1=O (stereo not drawn) [CPD-579, 2-((6-(2-(4-((6-((6-acetyl-8-cyclopentyl-5-methyl-7-oxo-7,8-dihydropyrido[2,3-d]pyrimidin-2-yl)amino)pyridin-3-yl)methyl)piperazin-1-yl)acetamido)spiro[3.3]heptan-2-yl)amino)-N-(6-(dimethylamino)pyridazin-3-yl)-6-isopropylnicotinamide] |
| < 50 | 55 to 85 | 55 to 85 | CC(=O)c1c(C)c2cnc(Nc3ccc(N4CCN(C5CCN(C(=O)C67CC(Nc8nc(C(C)C)ccc8C(=O)Nc8ccc(N(C)C)nn8)(C6)C7)C5)CC4)cn3)nc2n(C2CCCC2)c1=O (stereo not drawn) [CPD-580, 2-((3-(3-(4-(6-((6-acetyl-8-cyclopentyl-5-methyl-7-oxo-7,8-dihydropyrido[2,3-d]pyrimidin-2-yl)amino)pyridin-3-yl)piperazin-1-yl)pyrrolidine-1-carbonyl)bicyclo[1.1.1]pentan-1-yl)amino)-N-(6-(dimethylamino)pyridazin-3-yl)-6-isopropylnicotinamide] |
